Assay results reported in patent publication US20090181976A1, “Use of Compounds Binding to the Sigma Receptor for the Treatment of Metabolic Syndrome” (priority 2006, published 2009).

Tests used:
[1] = molecular target: sigma-1 (σ1) receptors (Homo sapiens, UniProt Q99720); details: statement on literature knowledge; cited from earlier work
[2] = tested on: obese (diet-induced obesity) wild type mice; assay: Triglyceride levels in blood of high fat diet-fed obese mice after 9 days of treatment; type: in vivo; details: male C57BL/6J mice on high fat diet, 50 mg/Kg s.c., once a day, blood on day 10, mean±standard deviation, p<0.05 vs vehicle control (91.75±32.88)
Protocol: Pharmacologic approach: Treatment of obese (diet-induced obesity) wild type mice with a sigma-1 receptor antagonist results in a significant reduction in the concentration of triglycerides in blood.
Wild type male mice from the C57BL/6J strain were used in these experiments. Mice of 8-10 weeks of age were fed for two months with high fat diet (49% fat content; Harlan Ibérica, TD97366). Treatment was administered subcutaneously, once a day, for 9 days. Treated animals received daily (for 9 days) a single dose of 50 mg/kg of BD-1063 (a sigma-1 receptor antagonist). Control animals received daily vehicle (saline). During the period of treatment, mice had free access to water and food (high fat diet). At the end of the treatment, on day 10, blood samples were obtained through intracardiac puncture and triglyceride levels were measured using the Cholestech LDX blood analyzer. Student t test was applied to determine statistical significance.
Values are means±standard deviation. Units are expressed as mg/100 mL.

sigma-1 (σ1) receptors, sequence (Q99720 whole entry): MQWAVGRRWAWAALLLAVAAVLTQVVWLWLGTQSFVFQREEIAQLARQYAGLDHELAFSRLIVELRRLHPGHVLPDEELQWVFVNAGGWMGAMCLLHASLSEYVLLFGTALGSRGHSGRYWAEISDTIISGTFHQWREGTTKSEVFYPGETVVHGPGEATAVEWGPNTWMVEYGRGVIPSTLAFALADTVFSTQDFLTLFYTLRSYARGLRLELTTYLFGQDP

Row | Compound | affinity of sigma-1 receptors [1] | Triglyceride Levels [2] [mg/100 mL]
1 | CC(C)=CCN1CCC2(C)c3cc(O)ccc3CC1C2C (centres unmarked) [pentazocine] | very high affinity | –
2 | CN1CCN(CCc2ccc(Cl)c(Cl)c2)CC1 [BD-1063] | – | 56.8±9.41
